Where a name gives a salt, the structure may show the parent alone.
What was measured:
NHE3 [1] = molecular target: T1, NHE3 (Homo sapiens, UniProt P48764); assay: Cell-based assay of NHE-3 activity (persistent inhibition), human; settings: human Persistence, 60 min incubation then washout
T1 construct: expressed in transfected cells
T1 sequence (P48764 26-834): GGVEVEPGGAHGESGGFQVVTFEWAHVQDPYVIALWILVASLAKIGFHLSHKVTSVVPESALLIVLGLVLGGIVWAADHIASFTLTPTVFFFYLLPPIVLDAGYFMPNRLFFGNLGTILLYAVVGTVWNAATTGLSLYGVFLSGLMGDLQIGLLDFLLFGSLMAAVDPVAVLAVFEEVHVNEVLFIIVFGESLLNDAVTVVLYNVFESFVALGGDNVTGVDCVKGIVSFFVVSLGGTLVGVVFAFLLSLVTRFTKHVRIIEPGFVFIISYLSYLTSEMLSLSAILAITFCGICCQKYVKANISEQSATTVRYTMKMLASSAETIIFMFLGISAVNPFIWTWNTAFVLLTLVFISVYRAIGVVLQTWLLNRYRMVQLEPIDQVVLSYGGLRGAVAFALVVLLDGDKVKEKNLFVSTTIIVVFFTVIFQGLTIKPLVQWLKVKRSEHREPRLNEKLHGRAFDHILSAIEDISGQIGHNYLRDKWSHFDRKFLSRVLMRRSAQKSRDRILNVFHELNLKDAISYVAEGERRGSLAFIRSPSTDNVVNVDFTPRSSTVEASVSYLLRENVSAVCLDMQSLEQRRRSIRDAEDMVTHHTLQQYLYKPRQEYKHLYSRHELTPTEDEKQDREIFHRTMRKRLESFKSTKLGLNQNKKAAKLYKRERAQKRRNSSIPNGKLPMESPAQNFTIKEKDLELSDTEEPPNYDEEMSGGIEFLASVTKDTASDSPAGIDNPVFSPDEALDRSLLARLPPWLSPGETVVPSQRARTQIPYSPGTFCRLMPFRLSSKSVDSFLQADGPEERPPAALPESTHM
T1 sequence (Q99653 2-195 partner limits assumed): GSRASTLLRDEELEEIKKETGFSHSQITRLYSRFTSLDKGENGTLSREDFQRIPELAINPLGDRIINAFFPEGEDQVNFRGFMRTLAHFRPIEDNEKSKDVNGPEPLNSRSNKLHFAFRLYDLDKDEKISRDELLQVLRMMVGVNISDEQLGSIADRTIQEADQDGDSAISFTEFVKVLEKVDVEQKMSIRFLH
In short: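 PS120 fibroblasts expressing human NHE3 with NHERF2 exposed to 0-30 μM compound for 60 min at RT, then washed out; cells acid-loaded by NH4Cl prepulse with BCECF-AM and Na+-free buffer. Na+-driven pH recovery started 10 min post-washout; initial rate of BCECF ratio change (FLIPR) taken as activity.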

NHE3 [2] = molecular target: T1, NHE3; assay: Cell-based assay of NHE-3 activity (pre-incubation inhibition), human; settings: human Preincubation; for pIC50: 0-30 μM test compound
In short: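 PS120 fibroblasts stably expressing human NHE3 and NHERF2, loaded 30 min at 37 °C with 5 μM BCECF-AM in NH4Cl buffer, then acidified 10 min at room temperature in Na+-free buffer with 0–30 μM compound. Initial rate of BCECF fluorescence ratio change (FLIPR) per minute taken as Na+/H+ activity.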

| SMILES | % inhibition (NHE3 [1]) | IC50 (NHE3 [1]) [µM] | % inhibition (NHE3 [2]) | pIC50 (NHE3 [2]) | pIC50 (NHE3 [1]) |
| --- | --- | --- | --- | --- | --- |
| Cc1cc(S(=O)(=O)NCCOCCOCCNC(=O)NCCCCNC(=O)NCCOCCOCCNS(=O)(=O)c2cc(C)c(O[C@H]3c4cc(Cl)cc(Cl)c4C[C@@H]3N(C)C)cc2C)c(C)cc1O[C@H]1c2cc(Cl)cc(Cl)c2C[C@@H]1N(C)C [Example 82, 3-[2-(2-[2-[(4-[[(1S,2S)-4,6-Dichloro-2-(dimethylamino)-2,3-dihydro-1H-inden-1-yl]oxy]-2,5-dimethylbenzene)sulfonamido]ethoxy]ethoxy)ethyl]-[4-([[2-(2-[2-[(4-[[(1S,2S)-4,6-dichloro-2-(dimethylamino)-2,3-dihydro-1H-inden-1-yl]oxy]-2,5-dimethylbenzene)sulfonamido]ethoxy]ethoxy)ethyl]carbamoyl]amino)butyl]urea] | C (>70%) | 0.1 to 1 | B (40-70%) | C (NHE3 pIC50 > 7) | – |
| Cc1cc(S(=O)(=O)NCCOCCOCCNC(=O)NCCCCNC(=O)NCCOCCOCCNS(=O)(=O)c2cc(C)c(O[C@H]3c4cc(Cl)cc(Cl)c4C[C@@H]3N3CCC[C@@H](N)C3)c(F)c2)cc(F)c1O[C@H]1c2cc(Cl)cc(Cl)c2C[C@@H]1N1CCC[C@@H](N)C1 [Example 83, 1-[2-(2-[2-[(4-[[(1S,2S)-2-[(3R)-3-Aminopiperidin-1-yl]-4,6-dichloro-2,3-dihydro-1H-inden-1-yl]oxy]-3-fluoro-5-methylbenzene)sulfonamido]ethoxy]ethoxy)ethyl]-3-[4-([[2-(2-[2-[(4-[[(1S,2S)-2-[(3R)-3-aminopiperidin-1-yl]-4,6-dichloro-2,3-dihydro-1H-inden-1-yl]oxy]-3-fluoro-5-methylbenzene)sulfonamido]ethoxy]ethoxy)ethyl]carbamoyl]amino)butyl]urea; hydrochloride] | C (>70%) | 0.1 to 1 | C (>70%) | C (NHE3 pIC50 > 7) | – |
| Cc1cc(S(=O)(=O)NCCOCCOCCNC(=O)NCCCCNC(=O)NCCOCCOCCNS(=O)(=O)c2cc(C)c(O[C@H]3c4cc(Cl)cc(Cl)c4C[C@@H]3N(C)C)c(F)c2)cc(F)c1O[C@H]1c2cc(Cl)cc(Cl)c2C[C@@H]1N(C)C [Example 84, 1-[2-(2-[2-[(4-[[(1S,2S)-4,6-Dichloro-2-(dimethylamino)-2,3-dihydro-1H-inden-1-yl]oxy]-3-fluoro-5-methylbenzene)sulfonamido]ethoxy]ethoxy)ethyl]-3-[4-([[2-(2-[2-[(4-[[(1S,2S)-4,6-dichloro-2-(dimethylamino)-2,3-dihydro-1H-inden-1-yl]oxy]-3-fluoro-5-methylbenzene)sulfonamido]ethoxy]ethoxy)ethyl]carbamoyl]amino)butyl]urea] | C (>70%) | – | C (>70%) | C (NHE3 pIC50 > 7) | C (NHE3 pIC50 > 7) |
| N[C@@H]1CCCN([C@H]2Cc3c(Cl)cc(Cl)cc3[C@@H]2Oc2c(F)cc(S(=O)(=O)NCCOCCOCCNC(=O)NCCCCNC(=O)NCCOCCOCCNS(=O)(=O)c3cc(F)c(O[C@H]4c5cc(Cl)cc(Cl)c5C[C@@H]4N4CCC[C@@H](N)C4)c(F)c3)cc2F)C1 [Example 85, 3-[2-(2-[2-[(4-[[(1S,2S)-2-[(3R)-3-Aminopiperidin-1-yl]-4,6-dichloro-2,3-dihydro-1H-1-inden-1-yl]oxy]-3,5-difluorobenzene)sulfonamido]ethoxy]ethoxy)ethyl]-1-[4-([[2-(2-[2-[(4-[[(1S,2S)-2-[(3R)-3-aminopiperidin-1-yl]-4,6-dichloro-2,3-dihydro-1H-inden-1-yl]oxy]-3,5-difluorobenzene)sulfonamido]ethoxy]ethoxy)ethyl]carbamoyl]amino)butyl]urea; bis(trifluoroacetic acid)] | C (>70%) | – | C (>70%) | – | – |
| CN(C)[C@H]1Cc2c(Cl)cc(Cl)cc2[C@@H]1Oc1c(F)cc(S(=O)(=O)NCCOCCOCCNC(=O)NCCCCNC(=O)NCCOCCOCCNS(=O)(=O)c2cc(F)c(O[C@H]3c4cc(Cl)cc(Cl)c4C[C@@H]3N(C)C)c(F)c2)cc1F [Example 86] | C (>70%) | – | C (>70%) | C (NHE3 pIC50 > 7) | C (NHE3 pIC50 > 7) |
| Cc1cc(O[C@H]2c3cc(Cl)cc(Cl)c3C[C@@H]2N2CCC[C@@H](N)C2)c(F)cc1S(=O)(=O)NCCOCCOCCNC(=O)NCCCCNC(=O)NCCOCCOCCNS(=O)(=O)c1cc(F)c(O[C@H]2c3cc(Cl)cc(Cl)c3C[C@@H]2N2CCC[C@@H](N)C2)cc1C [Example 87, 3-[2-(2-[2-[(4-[[(1S,2S)-2-[(3R)-3-Aminopiperidin-1-yl]-4,6-dichloro-2,3-dihydro-1H-inden-1-yl]oxy]-5-fluoro-2-methylbenzene)sulfonamido]ethoxy]ethoxy)ethyl]-1-[4-([[2-(2-[2-[(4-[[(1S,2S)-2-[(3R)-3-aminopiperidin-1-yl]-4,6-dichloro-2,3-dihydro-1H-inden-1-yl]oxy]-5-fluoro-2-methylbenzene)sulfonamido]ethoxy]ethoxy)ethyl]carbamoyl]amino)butyl]urea; bis(trifluoroacetic acid)] | C (>70%) | – | C (>70%) | – | – |
| Cc1cc(S(=O)(=O)NCCOCCOCCNC(=O)NCCCCNC(=O)NCCOCCOCCNS(=O)(=O)c2cc(C)c(O[C@H]3c4cc(Cl)cc(Cl)c4C[C@@H]3N3CCC[C@@H](N)C3)cc2F)c(F)cc1O[C@H]1c2cc(Cl)cc(Cl)c2C[C@@H]1N1CCC[C@@H](N)C1 [Example 89, 3-[2-(2-[2-[(4-[[(1S,2S)-2-[(3R)-3-Aminopiperidin-1-yl]-4,6-dichloro-2,3-dihydro-1H-inden-1-yl]oxy]-2-fluoro-5-methylbenzene)sulfonamido]ethoxy]ethoxy)ethyl]-1-[4-([[2-(2-[2-[(4-[[(1S,2S)-2-[(3R)-3-aminopiperidin-1-yl]-4,6-dichloro-2,3-dihydro-1H-inden-1-yl]oxy]-2-fluoro-5-methylbenzene)sulfonamido]ethoxy]ethoxy)ethyl]carbamoyl]amino)butyl]urea; bis(trifluoroacetic acid)] | C (>70%) | – | C (>70%) | – | – |
| Cc1cc(S(=O)(=O)NCCOCCOCCNC(=O)NCCCCNC(=O)NCCOCCOCCNS(=O)(=O)c2cc(C)c(O[C@H]3c4cc(Cl)cc(Cl)c4C[C@@H]3N(C)C)cc2F)c(F)cc1O[C@H]1c2cc(Cl)cc(Cl)c2C[C@@H]1N(C)C [Example 90, 3-[2-(2-[2-[(4-[[(1S,2S)-4,6-Dichloro-2-(dimethylamino)-2,3-dihydro-1H-inden-1-yl]oxy]-2-fluoro-5-methylbenzene)sulfonamido]ethoxy]ethoxy)ethyl]-1-[4-([[2-(2-[2-[(4-[[(1S,2S)-4,6-dichloro-2-(dimethylamino)-2,3-dihydro-1H-inden-1-yl]oxy]-2-fluoro-5-methylbenzene)sulfonamido]ethoxy]ethoxy)ethyl]carbamoyl]amino)butyl]urea; bis(trifluoroacetic acid)] | C (>70%) | 0.1 to 1 | C (>70%) | C (NHE3 pIC50 > 7) | – |
| Cc1cc(S(=O)(=O)N[C@H]2CCN(CCOCCNC(=O)NCCCCNC(=O)NCCOCCN3CC[C@H](NS(=O)(=O)c4ccc(O[C@H]5c6cc(Cl)cc(C#N)c6C[C@@H]5N(C)C)c(C)c4)C3=O)C2=O)ccc1O[C@H]1c2cc(Cl)cc(C#N)c2C[C@@H]1N(C)C [Example 92, 1-(2-[2-[(3S)-3-[(4-[[(1S,2S)-6-Chloro-4-cyano-2-(dimethylamino)-2,3-dihydro-1H-inden-1-yl]oxy]-3-methylbenzene)sulfonamido]-2-oxopyrrolidin-1-yl]ethoxy]ethyl)-3-(4-[[(2-[2-[(3S)-3-[(4-[[(1S,2S)-6-chloro-4-cyano-2-(dimethylamino)-2,3-dihydro-1H-inden-1-yl]oxy]-3-methylbenzene)sulfonamido]-2-oxopyrrolidin-1-yl]ethoxy]ethyl)carbamoyl]amino]butyl)urea; bis(trifluoroacetic acid)] | C (>70%) | – | C (>70%) | C (NHE3 pIC50 > 7) | C (NHE3 pIC50 > 7) |

From patent US11242337B2, “Compounds useful for treating gastrointestinal tract disorders” (Ardelyx, Inc., priority 2017, dated 2022)
